Each structure is given as a SMILES string.

These results are taken from ChEMBL document CHEMBL2016517, “3D Pharmacophore Model-Assisted Discovery of Novel CDC7 Inhibitors” (ACS Med Chem Lett, 2011).

In the assay the target is CDC7/DBF4 (Cell division cycle 7-related protein kinase/Activator of S phase kinase) (Homo sapiens, UniProt O00311). Description: Inhibition of CDC7/DBF4 using MCM-2 as substrate after 1 hr. The assay is classed as protein-complex assay.
CDC7/DBF4 (Cell division cycle 7-related protein kinase/Activator of S phase kinase), sequence (Q9UBU7 whole entry): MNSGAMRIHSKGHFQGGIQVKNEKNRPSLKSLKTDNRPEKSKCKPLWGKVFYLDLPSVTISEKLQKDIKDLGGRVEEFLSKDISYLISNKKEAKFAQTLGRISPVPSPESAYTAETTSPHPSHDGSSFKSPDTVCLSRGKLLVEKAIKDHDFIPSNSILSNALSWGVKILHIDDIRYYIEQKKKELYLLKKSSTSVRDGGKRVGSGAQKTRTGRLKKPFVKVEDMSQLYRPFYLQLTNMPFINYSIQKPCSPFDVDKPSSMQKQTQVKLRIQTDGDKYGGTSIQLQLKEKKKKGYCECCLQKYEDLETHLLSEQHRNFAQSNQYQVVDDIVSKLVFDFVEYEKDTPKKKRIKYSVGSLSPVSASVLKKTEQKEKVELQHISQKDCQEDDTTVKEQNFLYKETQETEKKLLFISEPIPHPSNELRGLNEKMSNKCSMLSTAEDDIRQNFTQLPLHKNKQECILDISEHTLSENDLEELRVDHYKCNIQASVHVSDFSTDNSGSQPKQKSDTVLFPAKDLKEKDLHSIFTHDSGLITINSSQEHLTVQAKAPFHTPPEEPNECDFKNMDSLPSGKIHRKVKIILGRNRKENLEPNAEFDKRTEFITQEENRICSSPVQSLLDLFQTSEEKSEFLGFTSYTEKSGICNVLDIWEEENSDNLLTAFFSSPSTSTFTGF
CDC7/DBF4 (Cell division cycle 7-related protein kinase/Activator of S phase kinase), sequence (O00311 whole entry): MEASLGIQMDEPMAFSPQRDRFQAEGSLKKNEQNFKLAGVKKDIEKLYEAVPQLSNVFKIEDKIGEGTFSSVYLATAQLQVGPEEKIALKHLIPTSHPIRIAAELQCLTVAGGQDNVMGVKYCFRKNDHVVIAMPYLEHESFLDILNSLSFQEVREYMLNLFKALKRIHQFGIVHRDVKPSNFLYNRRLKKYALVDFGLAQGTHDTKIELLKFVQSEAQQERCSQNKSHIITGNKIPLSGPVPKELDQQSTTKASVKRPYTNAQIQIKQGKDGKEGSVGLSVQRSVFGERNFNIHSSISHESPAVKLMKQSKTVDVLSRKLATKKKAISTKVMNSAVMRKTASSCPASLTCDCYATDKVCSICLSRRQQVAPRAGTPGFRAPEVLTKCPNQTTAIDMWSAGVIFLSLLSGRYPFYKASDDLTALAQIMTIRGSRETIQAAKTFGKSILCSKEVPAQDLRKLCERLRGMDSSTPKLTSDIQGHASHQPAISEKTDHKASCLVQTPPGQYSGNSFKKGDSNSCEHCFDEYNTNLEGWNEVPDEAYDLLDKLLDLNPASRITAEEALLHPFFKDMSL
On to `CC(=O)Nc1cccc(-c2cc3c(s2)C2(CCCCC2)CNC3=O)c1`, for which the IC50 was greater than 25000 nM.

`O=C1CCC2(CCCCC2)c2sc(-c3cn[nH]c3)cc21`: the IC50 was found to be 1 nM.

With `O=C1NCC2(CCCCC2)c2sc(-c3ccncc3)cc21`, the IC50 was less than 1 nM.

Regarding `Nc1cc(-c2cc3c(s2)C2(CCCCC2)CNC3=O)ccn1`, half-maximal inhibition (IC50) required 8 nM.

With `O=C1NCC2(CCCCC2)c2sc(Cl)cc21`, the half-maximal inhibitory concentration (IC50) was greater than 25000 nM.

In turn, `O=C1NCC2(CCCCC2)c2sc(-c3ncnc4[nH]cnc34)cc21` came in with an IC50 of 1 nM.

As for `O=C1NCC2(CCCCC2)c2sc(-c3cn[nH]c3)cc21`, the IC50 came to 1 nM.

Turning to `O=C1NCCc2sc(-c3ccncc3)cc21`, half-maximal inhibition (IC50) required 33 nM.

`O=C1NCC2(CCCCC2)c2sc(-c3cc[nH]n3)cc21` returned an IC50 of 370 nM.

`O=C1NCC2(CCCCC2)c2sc(-c3cccnc3)cc21` gave an IC50 of 5100 nM.

In turn, `CNC(=O)c1cc(-c2cc3c(s2)C2(CCCCC2)CNC3=O)ccn1` showed an IC50 greater than 25000 nM.

On to `O=C1CCC2(CCCCC2)c2sc(-c3ccncc3)cc21`, for which the IC50 worked out at 9 nM.

In turn, `Cn1cc(-c2cc3c(s2)C2(CCCCC2)CNC3=O)cn1` showed an IC50 greater than 25000 nM.

Turning to `CC(=O)Nc1cc(-c2cc3c(s2)C2(CCCCC2)CNC3=O)ccn1`, the IC50 was determined as 41 nM.

For `Nc1cc(-c2cc3c(s2)C2(CCCCC2)CCC3=O)ccn1`, the IC50 was 33 nM.

The term IC50 denotes the midpoint of a concentration-inhibition curve. Lower therefore signals greater potency.
